# Measurements taken from patent US20050075371A1, “Methods and compositions for the oral administration of prodrugs of proton pump inhibitors” (ALLERGAN, INC., priority 2003, published 2005).
# Tests used:
# [1] = Systemic half-life after oral or intravenous administration in dogs; assay type: in vivo, dogs (beagle); conditions: for Dog T1/2 PPI / Dog T1/2 Prodrug / half-life: oral solution, unit inferred; for Dog T1/2 PPI / half-life: systemic half-life of the proton pump inhibitor; for Dog T1/2 Prodrug: half-life of intact prodrug, NC = plasma concentration of prodrug too low to calculate half-life, or undetected; for t1/2 (systemic half-life in dogs after oral administration): Table 2D; for half-life: beagle, dog, blood, po, read-out: Dog T1/2 PPI (converted)
# Description: (§1) Blood concentrations of the compounds omeprazole, lansoprazole, pantoprazole, rabeprazole, and test compounds were quantified using an achiral liquid chromatography tandem mass spectrometry method (LC-MS/MS). Systemic pharmacokinetic parameters were determined for omeprazole or lansoprazole using non-compartmental analysis in Watson® version 6.3, available from InnaPhase Corporation, Philadelphia, Pa.
# Caco-2 cells = test: Membrane permeability (Papp) across Caco-2 cell monolayer, apical to basolateral; assay type: in vitro ADME; conditions: Caco-2, apical to basolateral, 10 μM, 37° C.
# Description: Determination of membrane permeability in all examples described herein was accomplished by the following procedure. This procedure is also used to determine whether a given prodrug falls within the scope of those claims given herein which relate to membrane permeability.
# Caco-2 cells were seeded on Costar™ 12 mm diameter, 0.4 μm pore size transwell filters, and were cultured at 37° C., 5% CO2 in a humidified tissue culture chamber.
# DMEM was equilibrated as a transport buffer in 37° C. water bath an hour before experiment. The cells were then equilibrated in transport buffer for 1 hr at 37° C.
# Dosing solution (10 μM) was prepared by adding a 20 μL aliquot of a 10 mM stock solution of the prodrug to 20 mL of transport buffer.
# Transport across Caco-2 cell monolayer was measured at 37° C., in the apical to basolateral direction (n=3).
# Transport buffer was removed from both apical and basolateral compartment of filters. Dosing solution (0.2 mL) was added to the apical compartment of the cell layers on transwell filters, and 0.8 ml fresh pre-warmed transport buffer was added to basolateral compartment. Timing was started for transport, and at 5, 20, and 60 min after transport started, sample fluid (400 μL) was collected from the basolateral compartment. Fresh transport buffer (400 μL) was added back to the basolateral compartment, and the fluid was thoroughly mixed.
# Transport samples, dosing solution, and standards(100 μL) each were mixed with 100 μl of a 500 ng/ml internal standard (Lansoprazole-D) for LC-MS/MS analysis, and part of each sample (100 μL) was vortexed and transferred into glass LC-MS/MS vials for analysis.
# The apparent permeability coefficient (Papp, cm/sec), otherwise known herein as the membrane permeability, is determined from the following relationship: Papp=J/(ACo) where J (pmol/min) is the transport rate, meaning the rate of prodrug movement through the cell layer, A (cm^2) is the filter surface area, and Co (μM) is the initial dosing concentration.
# The transport rate J, is calculated as the slope of the linear regression fit for the transport amount over time data using Microsoft Excel® 97 SR-2 (Microsoft Corp. Redmond, Wash.).
# Lucifer yellow (LY) was used as a paracellular permeability reference standard to determine integrity of cell layers used in the experiments. LY transport in the apical to basolateral direction was carried out in the same manner as described above. Fluorescence level in basolateral fluid sampled at 5, 20, and 60 min post dose was determined using Fluostar Galaxy (BMG Labtechnologies, Durham, N.C.) at excitation/emission wavelengths of 485/520 nm. A standard curve covering the range from 0.002 to 0.5 mg/mL is constructed to quantify the amount of LY in the transport sample to calculate permeability coefficient (Papp).
# [2] = Systemic half-life after oral or intravenous administration in rats; assay type: in vivo, rats (Sprague-Dawley); conditions: rats, oral solution; for Rat T1/2 Prodrug: half-life of intact prodrug, NC = plasma concentration of prodrug too low to calculate half-life, or undetected
# Description: as §1
# [3] = systemic half-life of the proton pump inhibitor, unit inferred
Structure (SMILES),Dog T1/2 PPI [1],Dog T1/2 Prodrug [1],"Rat T1/2 PPI [2, 3]",other results
Cc1c(OCC(F)(F)F)ccnc1C[S+]([O-])c1nc2ccccc2n1S(=O)(=O)c1ccc(OCC(=O)O)cc1 (centres unmarked) [Compound 10],59.3 min,–,–,–
COCCCOc1ccnc(C[S+]([O-])c2nc3ccccc3n2S(=O)(=O)c2c(C)cc(OCC(=O)O)cc2C)c1C (centres unmarked) [Compound 32],91.2 min,31.6 min,–,–
COc1ccc2c(c1)nc([S+]([O-])Cc1ncc(C)c(OC)c1C)n2S(=O)(=O)c1ccc(OCC(C)(C)C(=O)O)cc1 (centres unmarked) [Compound 3],48.8 min,18.7 min,106 min,Permeability (Caco-2 cells): 0.38 ×10⁻⁶ cm/s; t1/2 (systemic half-life in dogs after oral administration) [1]: 48.6 min
COc1ccc2c(c1)nc([S+]([O-])Cc1ncc(C)c(OC)c1C)n2S(=O)(=O)c1ccc(OCC(=O)O)c(C(=O)O)c1 (centres unmarked) [Compound 23],73.2 min,–,163 min,–
Cc1c(OCC(F)(F)F)ccnc1C[S+]([O-])c1nc2ccccc2n1S(=O)(=O)c1ccc(C(=O)O)cc1 (centres unmarked) [Compound 36],–,–,23.3 min,–
Cc1cc(OCC(=O)O)cc(C)c1S(=O)(=O)n1c([S+]([O-])Cc2nccc(OCC(F)(F)F)c2C)nc2ccccc21 (centres unmarked) [Compound 34],–,–,66.6 min,–
Cc1c(OCC(F)(F)F)ccnc1C[S+]([O-])c1nc2ccccc2n1S(=O)(=O)c1ccc(OCC(C)(C)C(=O)O)cc1 (centres unmarked) [Compound 11],52.4 min,–,56 min,–
COC(=O)COc1ccc(S(=O)(=O)n2c([S+]([O-])Cc3ncc(C)c(OC)c3C)nc3cc(OC)ccc32)cc1 (centres unmarked) [Compound 20],162 min,–,–,–
COc1ccnc(C[S+]([O-])c2nc3cc(OC(F)F)ccc3n2S(=O)(=O)c2ccc(OCC(=O)O)cc2)c1OC (centres unmarked) [Compound 28],157 min,–,87 min,–
COc1ccc2c(c1)nc([S+]([O-])Cc1ncc(C)c(OC)c1C)n2S(=O)(=O)c1cc(C(=O)O)ccc1C (centres unmarked) [Compound 27],66 min,7.02 min,130 min,–
Cc1c(OCC(F)(F)F)ccnc1C[S+]([O-])c1nc2ccccc2n1S(=O)(=O)c1ccc(OCC(=O)O)c(OCC(=O)O)c1 (centres unmarked) [Compound 35],–,–,110 min,–
COc1ccc(S(=O)(=O)n2c([S+]([O-])Cc3nccc(OCC(F)(F)F)c3C)nc3ccccc32)cc1C(=O)O (centres unmarked) [Compound 8],64.8 min,–,108 min,Permeability (Caco-2 cells): 0.23 ×10⁻⁶ cm/s; t1/2 (systemic half-life in dogs after oral administration) [1]: 66 min
"COCCCOc1ccnc(C[S+]([O-])c2nc3ccccc3[nH]2)c1C (centres unmarked) [Rabeprazole, reference compound]",–,–,–,half-life [1]: 22.1 min
COc1ccc2c(c1)nc([S+]([O-])Cc1ncc(C)c(OC)c1C)n2S(=O)(=O)c1c(C)cc(OCC(=O)O)cc1C (centres unmarked) [Compound 2],96.6 min,6.78 min,–,Permeability (Caco-2 cells): 0.054 ×10⁻⁶ cm/s; t1/2 (systemic half-life in dogs after oral administration) [1]: 96 min
COc1ccc(S(=O)(=O)n2c([S+]([O-])Cc3nccc(OCC(F)(F)F)c3C)nc3ccccc32)cc1CCC(=O)O (centres unmarked) [Compound 38],–,–,85.8 min,Rat T1/2 Prodrug ([2]; unit not given): 1.04 (0.35)
COCCCOc1ccnc(C[S+]([O-])c2nc3ccccc3n2S(=O)(=O)c2cc(C(=O)O)ccc2C)c1C (centres unmarked) [Compound 31],51.3 min,50.6 min,–,–
COc1ccc2c(c1)nc([S+]([O-])Cc1ncc(C)c(OC)c1C)n2S(=O)(=O)c1ccc(C(=O)O)c(C(=O)O)c1 (centres unmarked) [Compound 22],233 min,–,–,–
COc1ccc2c(c1)nc([S+]([O-])Cc1ncc(C)c(OC)c1C)n2S(=O)(=O)c1c(C)cc(OCC(C)(C)C(=O)O)cc1C (centres unmarked) [Compound 4],50.2 min,75.6 min,42.5 min,Permeability (Caco-2 cells): 0.52 ×10⁻⁶ cm/s; Rat T1/2 Prodrug ([2]; unit inferred): 20.5 min; t1/2 (systemic half-life in dogs after oral administration) [1]: 50.4 min

Structure (SMILES),Dog T1/2 PPI [1],Dog T1/2 Prodrug [1],"Rat T1/2 PPI [2, 3]",other results
COc1ccnc(C[S+]([O-])c2nc3cc(OC(F)F)ccc3n2S(=O)(=O)c2cc(C(=O)O)ccc2C)c1OC (centres unmarked) [Compound 29],57.5 min,–,60.6 min,–
Cc1cc(C(=O)O)ccc1S(=O)(=O)n1c([S+]([O-])Cc2nccc(OCC(F)(F)F)c2C)nc2ccccc21 (centres unmarked) [Compound 37],–,–,131 min,–
"COc1ccnc(C[S+]([O-])c2nc3ccc(OC(F)F)cc3[nH]2)c1OC (centres unmarked) [Pantoprazole, reference compound]",–,–,–,"half-life ([2]; Sprague-Dawley, rat, blood, systemic half-life of the proton pump inhibitor, unit inferred, read-out: Rat T1/2 PPI (converted)): 41.8 min; half-life [1]: 44.6 min"
Cc1c(OCC(F)(F)F)ccnc1C[S+]([O-])c1nc2ccccc2n1S(=O)(=O)c1ccc(C(=O)O)cc1 (centres unmarked) [Compound 18],54.5 min,5.39 min,–,–
COCCCOc1ccnc(C[S+]([O-])c2nc3ccccc3n2S(=O)(=O)c2cccc(C(=O)O)c2)c1C (centres unmarked) [Compound 30],29.5 min,67.2 min,–,–
Cc1ccc(C(=O)O)cc1S(=O)(=O)n1c([S+]([O-])Cc2nccc(OCC(F)(F)F)c2C)nc2ccccc21 (centres unmarked) [Compound 13],106 min,7.32 min,141 min,–
COc1ccc2c(c1)nc([S+]([O-])Cc1ncc(C)c(OC)c1C)n2S(=O)(=O)c1ccc(CC(=O)O)cc1 (centres unmarked) [Compound 5],61.8 min,16.1 min,102 min,Permeability (Caco-2 cells): 0.17 ×10⁻⁶ cm/s; t1/2 (systemic half-life in dogs after oral administration) [1]: 60 min
Cc1c(OCC(F)(F)F)ccnc1C[S+]([O-])c1nc2ccccc2n1S(=O)(=O)c1cccc(C(=O)O)c1 (centres unmarked) [Compound 7],53.6 min,12.4 min,116 min,Permeability (Caco-2 cells): 0.16 ×10⁻⁶ cm/s; t1/2 (systemic half-life in dogs after oral administration) [1]: 53.4 min
Cc1ccc(S(=O)(=O)n2c([S+]([O-])Cc3nccc(OCC(F)(F)F)c3C)nc3ccccc32)cc1CCC(=O)O (centres unmarked) [Compound 19],29 min,110 min,–,–
Cc1cc(OCC(=O)O)cc(C(C)C)c1S(=O)(=O)n1c([S+]([O-])Cc2nccc(OCC(F)(F)F)c2C)nc2ccccc21 (centres unmarked) [Compound 17],67.8 min,89.4 min,–,–
COCCCOc1ccnc(C[S+]([O-])c2nc3ccccc3n2S(=O)(=O)c2ccc(C(=O)O)cc2)c1C (centres unmarked) [Compound 33],53.6 min,44.8 min,–,–
Cc1c(OCC(F)(F)F)ccnc1C[S+]([O-])c1nc2ccccc2n1S(=O)(=O)c1ccc(CC(=O)O)cc1 (centres unmarked) [Compound 9],53.6 min,–,20.5 min,Permeability (Caco-2 cells): 0.34 ×10⁻⁶ cm/s; t1/2 (systemic half-life in dogs after oral administration) [1]: 53.4 min
COc1ccc2c(c1)nc([S+]([O-])Cc1ncc(C)c(OC)c1C)n2S(=O)(=O)c1ccc(OCC(=O)O)c(OCC(=O)O)c1 (centres unmarked) [Compound 24],82.2 min,–,23 min,–
COc1ccc(C(=O)O)cc1S(=O)(=O)n1c([S+]([O-])Cc2nccc(OCC(F)(F)F)c2C)nc2ccccc21 (centres unmarked) [Compound 14],83.4 min,7.08 min,32.2 min,–
Cc1c(OCC(F)(F)F)ccnc1C[S+]([O-])c1nc2ccccc2n1S(=O)(=O)c1ccc(CC(=O)O)c(CC(=O)O)c1 (centres unmarked) [Compound 12],55.9 min,–,–,–
Cc1c(OCC(F)(F)F)ccnc1C[S+]([O-])c1nc2ccccc2n1S(=O)(=O)c1ccc(C(=O)O)c(OCC(=O)O)c1 (centres unmarked) [Compound 16],60 min,–,112 min,–
COc1ccc2c(c1)nc([S+]([O-])Cc1ncc(C)c(OC)c1C)n2S(=O)(=O)c1cccc(C(=O)O)c1 (centres unmarked) [Compound 6],115 min,18.2 min,116 min,Permeability (Caco-2 cells): 0.067 ×10⁻⁶ cm/s; t1/2 (systemic half-life in dogs after oral administration) [1]: 114 min
